Experimental data published in patent publication US20050009924A1 (priority 2003, published 2005).
Structures can show the parent of a compound that is named as a salt.

Legend:
[1] = tested on: iron-induced lipid peroxidation in rat brain homogenates; experiment: Iron-induced lipid peroxidation in rat brain homogenates
[2] = tested on: human hepatoma G2 cells; experiment: Cytotoxicity assay (XTT colorimetric), Hep G2; assay type: cell-based; conditions: 48 h of drug exposure
[3] = tested on: rat glioma C6 cells; experiment: Cytotoxicity assay (XTT colorimetric), C6 cells; assay type: cell-based; conditions: 48 h of drug exposure
[4] = tested on: hepatitis B virus transfected hepatoma cell lines, HepG 2.2.15 cells; experiment: Cytotoxicity assay, 2.2.15 cells; assay type: cell-based, human; conditions: 48 h of drug exposure
[5] = tested on: transcriptional activity of hTERT; experiment: SEAP reporter assay of hTERT expression, PhTERT-SEAP (hTERT-BJ1); assay type: cell-based, human; conditions: PhTERT-SEAP (hTERT-BJ1)
Method in brief: (§1)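 Cells seeded, grown 24 h at 37° C, refed, then exposed to varying drug amounts for another 24 h. Collected media heated 65° C for 10 min to kill heat-labile phosphatases, mixed with equal SEAP buffer (2 M diethanolamine, 1 mM MgCl2, 20 mM […]) plus 12 mM final p-nitrophenyl phosphate; rate of A405 increase measured.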

[6] = tested on: transcriptional activity of hTERT; experiment: SEAP reporter assay of hTERT expression, PhTERT-SEAP (H1299); assay type: cell-based, human; conditions: PhTERT-SEAP(hTERT-H1299)
Method in brief: as §1

[7] = tested on: non-small-cell lung cancer cells H1299; experiment: MTT relative viability, PhTERT-SEAP (H1299) cells; conditions: PhTERT-SEAP(hTERT-H1299)
[8] = tested on: hTERT-BJ1 cells; experiment: MTT relative viability, PhTERT-SEAP (hTERT-BJ1) cells; conditions: PhTERT-SEAP (hTERT-BJ1)
Experimental: The tetrazolium reagent (MTT; 3-(4,5-di-methylthiazol)-2,5-diphenyl tetrazolium bromide, USB) was designed to yield a colored formazan upon metabolic reduction by viable cells. Approximately […] cells were plated onto each well of a 96-well plate and incubated in 5% CO2 at 37° C. for 24 h. To assess the in vitro cytotoxicity, each compound was dissolved in DMSO and prepared immediately before the experiments and was diluted into the complete medium before addition to cell cultures. Test compounds were then added to the culture medium for designated various concentrations. After 48 h, an amount of 25 μL of MTT was added to each well, and the samples were incubated at 37° C. for 4 h. A 100 μL solution of lysis buffer containing 20% SDS and 50% N,N-dimethylformamide was added to each well and incubated at 37° C. for another 16 h. The absorbency at 550 nm was measured using an ELISA reader.
Non small lung cancer cells H1299 (telomerase positive) were grown in RPMI 1640 media supplemented with 10% fetal bovine serum, 100 units/mL penicillin and 100 mg/mL streptomycin in a humidified atmosphere with 5% CO2 at 37° C. The hTERT immortalized hTERT-BJ1 (BD Biosciences Clontech)^39 were grown in DMEM media supplemented with 10% fetal calf serum, 100 units/mL penicillin and 100 mg/mL streptomycin, 1 mM sodium pyruvate, and 4 mM I-arginine in a humidified atmosphere with 5% CO2 at 37° C. Culture media were changed every 3 days. […] The stable clones derived from H1299 or hTERT-BJ1 were cultured using conditions that are similar to their parental cells.

SMILES: O=C1O[C@H]([C@@H](O)CO)C(O)=C1O [Ascorbic acid, reference compound]
- Inhibition (%) ([1]; 0.01 mM): 10 ± 0.6%
- Inhibition (%) ([1]; 0.1 mM): 32 ± 1.2%
- Inhibition (%) ([1]; 1 mM): 75 ± 1.5%
- Inhibition (%) ([1]; 10 mM): 100%
- Inhibition of LP(10 mM) ([1]; 10 mM, mean percent inhibition (Table 3)): >100%
- LP (%) (10 mM) ([1]; 10 mM, relative percentage of inhibition (Table 1)): >100%

SMILES: O=C1c2c(O)ccc(O)c2C(=O)c2c(NCCNCCO)ccc(NCCNCCO)c21 [Mitoxantrone-HCl, reference compound]
- Inhibition (%) ([1]; 0.01 mM): 5 ± 0.3%
- Inhibition (%) ([1]; 0.1 mM): 22 ± 3.5%
- Inhibition (%) ([1]; 1 mM): 54 ± 2.1%
- Inhibition (%) ([1]; 10 mM): 100%

SMILES: O=C(CSc1ccccc1)Nc1ccc(NC(=O)CSc2ccccc2)c2c1C(=O)c1ccccc1C2=O [VI28, 1,4-Bis(phenylthioacetamido)-9,10-anthracenedione]
- IC50 [2]: > 20 µM
- IC50 [3]: > 20 µM
- IC50 [4]: > 20 µM
- Relative SEAP activity (%) ([5]; 1.8 μM): 14 ± 14.7%
- SEAP/vibility ([5]; 1.8 μM): 0.12
- Relative SEAP activity (%) ([5]; 18 μM): 23 ± 9.5%
- SEAP/vibility ([5]; 18 μM): 0.21
- Relative SEAP activity (%) ([5]; 185 μM): 7 ± 9.6%
- SEAP/vibility ([5]; 185 μM): 0.12
- Relative SEAP activity (%) ([6]; 1.8 μM): 93 ± 3.2%
- SEAP/vibility ([6]; 1.8 μM): 0.89
- Relative SEAP activity (%) ([6]; 18 μM): 92 ± 3.5%
- SEAP/vibility ([6]; 18 μM): 0.96
- Relative SEAP activity (%) ([6]; 185 μM): 80 ± 4.0%
- SEAP/vibility ([6]; 185 μM): 1.35
- Relative MTT viability (%) ([7]; 1.8 μM): 104 ± 5.6%
- Relative MTT viability (%) ([7]; 18 μM): 96 ± 4.3%
- Relative MTT viability (%) ([7]; 185 μM): 59 ± 3.8%
- Relative MTT viability (%) ([8]; 1.8 μM): 115 ± 4.8%
- Relative MTT viability (%) ([8]; 18 μM): 105 ± 6.7%
- Relative MTT viability (%) ([8]; 185 μM): 60 ± 2.3%

SMILES: O=C(Nc1ccc(NC(=O)c2ccc(F)cc2)c2c1C(=O)c1ccccc1C2=O)c1ccc(F)cc1 [VI30, 1,4-Bis(4-fluorobenzoylamido)-9,10-anthracenedione]
- IC50 [2]: > 20 µM
- IC50 [3]: > 20 µM
- IC50 [4]: > 20 µM
- Relative SEAP activity (%) ([5]; 2.0 μM): 104 ± 16.3%
- SEAP/vibility ([5]; 2.0 μM): 1.01
- Relative SEAP activity (%) ([5]; 20 μM): 101 ± 27.6%
- SEAP/vibility ([5]; 20 μM): 0.95
- Relative SEAP activity (%) ([5]; 207 μM): 100 ± 14.5%
- SEAP/vibility ([5]; 207 μM): 1.20
- Relative SEAP activity (%) ([6]; 2.0 μM): 111 ± 3.6%
- SEAP/vibility ([6]; 2.0 μM): 1.01
- Relative SEAP activity (%) ([6]; 20 μM): 107 ± 4.8%
- SEAP/vibility ([6]; 20 μM): 1.04
- Relative SEAP activity (%) ([6]; 207 μM): 107 ± 9.0%
- SEAP/vibility ([6]; 207 μM): 1.20
- Relative MTT viability (%) ([7]; 2.0 μM): 110 ± 5.9%
- Relative MTT viability (%) ([7]; 20 μM): 103 ± 6.6%
- Relative MTT viability (%) ([7]; 207 μM): 89 ± 6.7%
- Relative MTT viability (%) ([8]; 2.0 μM): 103 ± 9.0%
- Relative MTT viability (%) ([8]; 20 μM): 107 ± 3.1%
- Relative MTT viability (%) ([8]; 207 μM): 83 ± 5.3%

SMILES: O=C(Nc1ccc(NC(=O)c2ccc(C(F)(F)F)cc2)c2c1C(=O)c1ccccc1C2=O)c1ccc(C(F)(F)F)cc1 [VI31, 1,4-Bis(4-trifluorobenzoylamido)-9,10-anthracenedione]
- IC50 [2]: > 20 µM
- IC50 [3]: > 20 µM
- IC50 [4]: > 20 µM
- Relative SEAP activity (%) ([5]; 1.7 μM): 100 ± 15.1%
- SEAP/vibility ([5]; 1.7 μM): 1.02
- Relative SEAP activity (%) ([5]; 17 μM): 90 ± 16.3%
- SEAP/vibility ([5]; 17 μM): 0.90
- Relative SEAP activity (%) ([5]; 171 μM): 103 ± 17.6%
- SEAP/vibility ([5]; 171 μM): 1.16
- Relative SEAP activity (%) ([6]; 1.7 μM): 110 ± 5.5%
- SEAP/vibility ([6]; 1.7 μM): 1.12
- Relative SEAP activity (%) ([6]; 17 μM): 114 ± 5.6%
- SEAP/vibility ([6]; 17 μM): 1.14
- Relative SEAP activity (%) ([6]; 171 μM): 96 ± 2.1%
- SEAP/vibility ([6]; 171 μM): 1.24
- Relative MTT viability (%) ([7]; 1.7 μM): 98 ± 7.8%
- Relative MTT viability (%) ([7]; 17 μM): 100 ± 8.9%
- Relative MTT viability (%) ([7]; 171 μM): 77 ± 6.7%
- Relative MTT viability (%) ([8]; 1.7 μM): 98 ± 4.4%
- Relative MTT viability (%) ([8]; 17 μM): 100 ± 3.4%
- Relative MTT viability (%) ([8]; 171 μM): 89 ± 3.6%

SMILES: NCC1CC1CCC(=O)Nc1ccc(NC(=O)CCC2CC2CN)c2c1C(=O)c1ccccc1C2=O (stereo not shown) [VI36, 1,4-Bis[2-(aminomnethyl)cyclopropanepropionamido]-9,10-anthracenedione]
- IC50 [2]: 6.46 µM
- IC50 [3]: 2.76 µM
- IC50 [4]: 3.46 µM
- Relative SEAP activity (%) ([5]; 2.0 μM): 91 ± 19.4%
- SEAP/vibility ([5]; 2.0 μM): 0.88
- Relative SEAP activity (%) ([5]; 20 μM): 95 ± 14.2%
- SEAP/vibility ([5]; 20 μM): 1.03
- Relative SEAP activity (%) ([5]; 204 μM): 65 ± 15.7%
- SEAP/vibility ([5]; 204 μM): 0.63
- Relative SEAP activity (%) ([6]; 2.0 μM): 123 ± 12.4%
- SEAP/vibility ([6]; 2.0 μM): 1.16
- Relative SEAP activity (%) ([6]; 20 μM): 112 ± 11.5%
- SEAP/vibility ([6]; 20 μM): 1.76
- Relative SEAP activity (%) ([6]; 204 μM): 80 ± 14.5%
- SEAP/vibility ([6]; 204 μM): 2.71
- Relative MTT viability (%) ([7]; 2.0 μM): 106 ± 4.1%
- Relative MTT viability (%) ([7]; 20 μM): 64 ± 5.1%
- Relative MTT viability (%) ([7]; 204 μM): 30 ± 4.7%
- Relative MTT viability (%) ([8]; 2.0 μM): 103 ± 6.4%
- Relative MTT viability (%) ([8]; 20 μM): 92 ± 11.4%
- Relative MTT viability (%) ([8]; 204 μM): 104 ± 17.4%
